Like-named read-outs stand apart in the source and are kept apart here. A value given as a limit tells only on which side of the number the result lay.

These results are taken from patent US20190358176A1, “METHODS OF SENSITIZING CANCER CELLS TO IMMUNE CELL KILLING” (University of Pittsburgh - of the Commonwealth System of …, priority 2017, published 2019).

The subject of series [1] is MDA-MB-231 cells. Put plainly: Immune cell killing (sensitization to PBMC-derived LAK). The class given is cell-based, human. The note with it: pre-treated 24 hours: BCI-215 3 μM, cisplatin 2 μM, doxorubicin 400 nM. Here is the method: Peripheral blood mononuclear cells were obtained from healthy volunteers with an established IRB approved protocol, separated from heparinized blood on Ficoll-hypaque (GE Healthcare, Chicago) gradients as previously reported (16). Cells were cultured in RPMI 1640 supplemented with 10% FCS, 1% glutamine, 1% penicillin/streptomycin, and stimulated with 6,000 IU of Interleukin 2 for 24 hours. After incubation, cells were washed with PBS and counted. In parallel, MBA-MB-231 cells were pre-treated in a 384 well plate with vehicle or BCI-215 (3 μM). After 24 hours in culture, medium was replaced and PBMC added in two-fold serial dilutions starting with a 50-fold excess of PBMCs in triplicate. After 24 hours of co-culture, cells were fixed with formaldehyde/Hoechst 33342, washed twice with PBS, and imaged on the ArrayScan II. Cancer cells were identified by their larger nuclei compared with PBMC, setting a size gate in the DAPI channel. In experiments with chemotherapeutics, cells carrying a biosensor consisting of a mitochondrial targeting sequence derived from cytochrome c oxidase VIII linked to GFP that is a surrogate for cytochrome c release from mitochondria (17) were pre-treated for 24 hours with cisplatin (2 μM) or doxorubicin (400 nM), exposed to LAK as above, and cancer cells identified and quantified by green fluorescence. Cell densities were normalized to those in the absence of PBMCs. Mean cell densities from multiple independent experiments were averaged and plotted in GraphPad Prism.

Series [2] concerns rat hepatocytes. In words: Hepatocyte mitochondrial function (TMRE staining). It is filed as cell-based. The protocol:
(§1) Rat hepatocytes were isolated using standard two step collagenase digestion (15) and sub-cultivated at 14,000 hepatocytes/well in collagen-1 coated 384 well plates in Williams E Medium supplemented with 10% FBS, 2 mM L-glutamine and 50 U/ml Penicillin and streptomycin. After 4 hours, medium was decanted and replaced with Hepatocyte Maintenance Media (Williams E supplemented with 1.25 mg/ml bovine serum albumin, 6.25 μg/ml human insulin, 100 nM dexamethasone, 6.25 μg/ml human transferrin, 6.25 ng/ml selenous acid, 2 mM L-glutamine, 15 mM HEPES, 100 U/mL penicillin, and 100 U/mL streptomycin). After overnight culture, cells were treated with concentration gradients of test agents. One hour after compound addition, cells were labeled with 200 nM TMRE and 4 μg/ml Hoechst 33342 for 45 min, imaged live on an ArrayScan VTI using a 10× objective, and images were analyzed with the Compartmental Bioapplication. Mitochondria were identified as cytosolic spots by size and brightness. The final parameter was % HIGH RingSpotAvgIntenCh2 (i.e., percentage of cells with TMRE puncta in the cytoplasm based on a threshold set with vehicle treated cells).

In series [3] the test system is rat hepatocytes. Put plainly: Five-day hepatocyte toxicity (PI positive cells). The class given is cell-based. Here is the method:
as §1
A gelling solution of 1.25 mg/ml rat tail collagen type I in pH 7.2 90:10 (v/v) Williams E media/10×HBSS was overlaid onto the rat hepatocytes. The collagen gel was incubated for 1 hour at 37° C., 5% CO2. The collagen sandwich cultures were then challenged for 5 days to test compounds in Hepatocyte Maintenance Media, without refeeding. A 10× solution of 40 μg/ml Hoechst 33342 was added during the final 2 hours of incubation followed by a 10× solution of 20 μg/ml PI for 1 hour. Cells were imaged and the percentage of PI positive cells calculated as above.

A further series concerns cellular MAPK activity. The settings on record: literature value; cited from earlier work.
The subject of series [4] is MDA-MB-231 cells. Put plainly: Toxicity reversal (rescue from BCI-215 toxicity by MAPK inhibitors). The settings on record: MAPK inhibitor pre-incubation, then BCI-215 25 μM, 24 hours. It is filed as cell-based, human. Here is the method: Cells were pre-treated (30 min for SCH772984, SP600125, SB203580, and 3 hours for JNK-IN-8) with identical concentration gradients of MAPK inhibitors on the right and left halves of a 384 well microplate. After preincubation, half of the microplate was treated with vehicle (DMSO), the other with a pro-apoptotic concentration of BCI-215 (25 μM). To eliminate potential bias through plate/edge effects, an independent plate was prepared in parallel where vehicle and BCI-215 treatments were reversed. Twenty-four hours thereafter, plates were stained with Hoechst 33342, washed once, and imaged on the ArrayScan II using a 10× objective for analysis for cell numbers and nuclear morphology. Plates were subsequently immunostained with a cleaved caspase-3/Cy5-conjugated secondary antibody pair and analyzed for apoptosis on an ArrayScan VTI using a 20×0.75 NA objective. Four independent readouts were extracted and correlated: cell density (SelectedObjectCountPerValidField), nuclear condensation (MEAN_ObjectAvgIntenCh1), nucleus rounding (MEAN_ObjectShapeLWRCh1), and average cellular cleaved caspase-3 intensity (MEAN_AvgIntenCh2). For each parameter, data were normalized to vehicle (maximum rescue) and BCI-215 (no rescue) as % rescue=1−((data point−DMSO)/(DMSO-BCI-215))*100.

For series [5], the system named is MDA-MB-231 cells. In words: Detection and quantitation of ROS in cancer cells (CM-H2-DCFDA). It is filed as cell-based, human. The note with it: for EC50: read-out: EC50 of ROS generation. The protocol: Detection and quantitation of ROS in cancer cells was performed as described before (14). Briefly, MDA-MB-231 cells were labeled with Hoechst 33342, loaded with CM-H2-DCFDA (5 μM, 15 min), and treated with test agents for 10 min. After two washes, cells were analyzed for Hoechst and ROS/FITC fluorescence on the ArrayScan II. Cells were classified as positive for ROS if their average FITC intensity exceeded a threshold defined as the average FITC intensity plus one SD from DMSO-treated wells.

Series [6] concerns MDA-MB-231 cells. In words: HCA of cell motility and cytotoxicity (Oris Pro 384 cell migration plate). The settings on record: 48 hours, at antimigratory concentrations. The class given is cell-based, human. The protocol:
HCA of cell motility and cytotoxicity was performed essentially as described (51). MDA-MB-231 cells (15,000/well) were plated in collagen-coated Oris™ Pro 384-well microplates (Platypus Technologies cat # PRO384CMACCS) containing a chemical exclusion zone that dissolves upon cell seeding. Two hours after plating, medium was removed, and cells treated with ten-point, two-fold concentration gradients of test agents. Forty-eight hours after treatment, cells were stained with 10 μg/ml Hoechst 33342 and 1 μg/ml PI in HBSS for 15 min at 37° C. Plates were washed once with PBS and scanned live on the ArrayScan II using a 5× objective. To capture cells that had entered into the exclusion zone, a single field was acquired in the center of the well and nuclei therein enumerated. To assess changes in cell loss, nuclear size, and necrotic cell death, a second scan was performed that captured one field at the edge of the well (51). Parameters exported and plotted were SelectedObjectCountPerValidField (cell density), MEAN ObjectAreaCh1 (nucleus size), and % RESPONDER MeanAvgIntenCh2 (percent PI positive cells based on based on a threshold set with vehicle treated cells).

For series [7], the system named is DUSP6/MKP-3 and DUSP1/MKP-1. The settings on record: HeLa cells, prior study (12); cited from earlier work.
Series [8] relates to MDA-MB-231 cells. Put plainly: HCA of apoptosis and ERK phosphorylation (multiparametric: nuclear condensation, caspase-3 cleavage, ERK phosphorylation). The class given is cell-based, human. The settings on record: for IC50: Homo sapiens, 24 hours. The protocol: MDA-MB-231 cells (10,000/well) were treated with identical concentration gradients of test agents on the right and left half of a 384 well microplate for later assessment of potential compound autofluorescence. After 24 hours, cells were fixed, permeabilized with 0.2% Triton X-100, blocked with 1% BSA/PBS, and immunostained with anti-phospho-ERK (E10, CST cat#9106L)/AlexaFluor488 and anti-cleaved caspase-3 (CST cat#9664L)/AlexaFluor594 primary/secondary antibody pairs. Plates were imaged on the ArrayScan II using a 10×0.5NA objective. Each well was background corrected by subtracting mean phospho-ERK and cleaved caspase-3 intensities from wells that had received secondary antibody only. Data in Table 1 are the averages of the indicated numbers of independent experiments, each performed in quadruplicate. IC50, standard error, and 95% confidence intervals were calculated by […] in GraphPad Prism.
Multiple data points were analyzed in GraphPad Prism by one-way ANOVA using Dunnett's multiple comparison test. EC50/IC50 values were obtained from at least three independent experiments by non-linear regression using a four parameter logistic equation. IC50, standard error, and 95% confidence intervals were calculated in GraphPad.

The test system of a further series is NCI 60 cell line panel. The settings on record: NSC150117, last tested June 2016; cited from earlier work.
Series [9] has as its system patient-derived pre-B acute lymphoblastic leukemia (pre-B-ALL) cells. The settings on record: literature (46); cited from earlier work.
Series [10] deals with ERK, JNK/SAPK, p38, MEK1 and MKK4/SEK1 phosphorylation. Put plainly: Western blot of MAPK cascade phosphorylation. The note with it: MDA-MB-231 cells, 20 μM. The class given is cell-based, human.
[11] abbreviates: rat hepatocytes, 5-day exposure.

For `COc1cccc2c1C(=O)c1c(O)c3c(c(O)c1C2=O)C[C@@](O)(C(=O)CO)C[C@@H]3O[C@H]1C[C@H](N)[C@H](O)[C@H](C)O1` [doxorubicin], the “sensitization to LAK activity” value in the series on MDA-MB-231 cells [1] was “sensitized cells to LAK activity”.
`C[n+]1cc2c3c(ccc2c2ccc4cc5c(cc4c21)OCO5)OCO3` [sanguinarine]: the “mitochondrial membrane integrity / potential (TMRE)” value with rat hepatocytes [2] is listed as “loss of mitochondrial membrane integrity”. Also, in the series with rat hepatocytes [3] (setting [11]), the “hepatocyte toxicity, cell death (PI positive cells)” value (“hepatocyte toxicity, cell death” below) was “caused cell death”.
As to `C[S+]([O-])c1ccc(-c2nc(-c3ccncc3)c(-c3ccc(F)cc3)[nH]2)cc1` (centres unmarked) [SB203580], in the series with cellular MAPK activity, the “published concentration reported to inhibit cellular MAPK activity” value is 10 µM. In the series on MDA-MB-231 cells [4], the “reversal of BCI-215-induced cell loss, nuclear morphology changes and apoptosis” value is recorded as “partially reversed”.
Consider `O=C1C(SCCO)=C(SCCO)C(=O)c2ccccc21` [NSC95397], for which, in the series with rat hepatocytes [2], the “mitochondrial membrane integrity / potential (TMRE)” value is “loss of mitochondrial membrane integrity”. In the series with MDA-MB-231 cells [5], the “time to ROS generation” value was not above 30 min and the EC50 is 3 to 5 µM. The “necrosis (% PI positive cells)” value in the series on MDA-MB-231 cells [6] is given as “caused necrosis at antimigratory concentrations”. Moreover, the “hepatocyte toxicity, cell death” value in the series with rat hepatocytes [3] (setting [11]) was “caused cell death”.
One may read the IC50 as the concentration that gives 50% inhibition. As usually defined, the GI50 is the concentration giving 50% growth inhibition. For the compound `O=C1/C(=C/c2ccccc2)C(NC2CCCCC2)c2ccccc21` (centres unmarked) [BCI, (E)-2-benzylidene-3-(cyclohexylamino)-2,3-dihydro-1H-inden-1-one], the “effect on ectopic DUSP6/MKP-3 and DUSP1/MKP-1 expression” value in series [7] is given as “override the effects”. The nuclear morphology result in the series on MDA-MB-231 cells [8] (BCI and BCI-215 at 22 μM) was “shrunken, condensed nuclei that resembled pyknosis”. The IC50 in the series on MDA-MB-231 cells [8] (induction of phospho-ERK, read-out: IC50 ERK phosphorylation) is 8.59 µM; in the series with MDA-MB-231 cells [8] (read-out: IC50 Caspase-3 cleavage), 9.17 µM; in the series with MDA-MB-231 cells [8] (read-out: IC50 Nuclear condensation), 12.8 µM. Besides, in the series on rat hepatocytes [2], the “mitochondrial membrane integrity / potential (TMRE)” value is “did not affect mitochondrial potential”. The GI50 in the series with NCI 60 cell line panel was 1.84 µM. Also, the EC50 in the series on MDA-MB-231 cells [5] (Homo sapiens) is 20 µM. For the same compound, the “cell death in pre-B-ALL cells” value in [9] was “selectively induced cell death”. Moreover, in the series on MDA-MB-231 cells [6], the “necrosis (% PI positive cells)” value is “Necrosis was reduced”. Further, the “activation (phosphorylation) of ERK, JNK/SAPK and p38” value in series [10] was “activated all three kinases”. Besides, the “hepatocyte toxicity, cell death” value in the series on rat hepatocytes [3] (setting [11]) was “caused cell death”.
For the compound `N.N.[Cl][Pt][Cl]` [cisplatin], the “sensitization to LAK activity” value in the series with MDA-MB-231 cells [1] is on record as “sensitized cells to LAK activity”.
With `Cc1cc(NC(=O)c2cccc(NC(=O)/C=C/CN(C)C)c2)ccc1Nc1nccc(-c2cccnc2)n1` [JNK-IN-8], in the series with cellular MAPK activity, the “published concentration reported to inhibit cellular MAPK activity” value was 0.5 µM. Besides, the “reversal of BCI-215-induced cell loss, nuclear morphology changes and apoptosis” value with MDA-MB-231 cells [4] was “no effect”.
Consider `O=C(Nc1ccc2[nH]nc(-c3ccncc3)c2c1)[C@@H]1CCN(CC(=O)N2CCN(c3ccc(-c4ncccn4)cc3)CC2)C1` [SCH772984], for which the “published concentration reported to inhibit cellular MAPK activity” value with cellular MAPK activity was 0.03 µM. Besides, the “reversal of BCI-215-induced cell loss, nuclear morphology changes and apoptosis” value in the series on MDA-MB-231 cells [4] was “no effect”.
In the case of `CC1=CC(=O)c2ccccc2C1=O` [menadione], the “mitochondrial membrane integrity / potential (TMRE)” value with rat hepatocytes [2] was “loss of mitochondrial membrane integrity”. In addition, in the series on rat hepatocytes [3], the “hepatocyte toxicity, cell death” value is listed as “caused cell death”.
